Where two headings read alike, the source gives them in different places.
What was measured:
Test in all cases: KINOMEscan (ScanMAX) kinase profiling
Format in all cases: binding
panel of 468 kinases [1] = target: T1, panel of 468 kinases (Homo sapiens, UniProt P22455); conditions: FGFR4; 1 μM; read-out: % control
T1 construct: purchased KINOMEscan (ScanMAX) service

panel of 468 kinases [2] = target: T2, panel of 468 kinases (Homo sapiens, UniProt Q6P2M8); conditions: CAMK1B; 1 μM; read-out: % control
T2 construct: purchased KINOMEscan (ScanMAX) service
T2 sequence (Q6P2M8 whole entry): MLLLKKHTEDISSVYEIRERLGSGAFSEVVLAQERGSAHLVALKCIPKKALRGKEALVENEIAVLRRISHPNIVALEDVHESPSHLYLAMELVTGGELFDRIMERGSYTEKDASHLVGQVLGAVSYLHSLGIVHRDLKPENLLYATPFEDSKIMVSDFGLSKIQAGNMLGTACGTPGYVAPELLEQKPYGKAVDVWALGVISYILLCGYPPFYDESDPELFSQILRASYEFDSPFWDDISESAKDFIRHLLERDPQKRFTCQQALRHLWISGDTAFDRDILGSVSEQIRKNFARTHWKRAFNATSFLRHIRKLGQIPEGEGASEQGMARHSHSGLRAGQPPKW

panel of 468 kinases [3] = target: T3, panel of 468 kinases (Homo sapiens, UniProt P08581, M1250T); conditions: MET(M1250T); 1 μM; read-out: % control
T3 construct: purchased KINOMEscan (ScanMAX) service
T3 sequence (P08581 25-1390 M1250T): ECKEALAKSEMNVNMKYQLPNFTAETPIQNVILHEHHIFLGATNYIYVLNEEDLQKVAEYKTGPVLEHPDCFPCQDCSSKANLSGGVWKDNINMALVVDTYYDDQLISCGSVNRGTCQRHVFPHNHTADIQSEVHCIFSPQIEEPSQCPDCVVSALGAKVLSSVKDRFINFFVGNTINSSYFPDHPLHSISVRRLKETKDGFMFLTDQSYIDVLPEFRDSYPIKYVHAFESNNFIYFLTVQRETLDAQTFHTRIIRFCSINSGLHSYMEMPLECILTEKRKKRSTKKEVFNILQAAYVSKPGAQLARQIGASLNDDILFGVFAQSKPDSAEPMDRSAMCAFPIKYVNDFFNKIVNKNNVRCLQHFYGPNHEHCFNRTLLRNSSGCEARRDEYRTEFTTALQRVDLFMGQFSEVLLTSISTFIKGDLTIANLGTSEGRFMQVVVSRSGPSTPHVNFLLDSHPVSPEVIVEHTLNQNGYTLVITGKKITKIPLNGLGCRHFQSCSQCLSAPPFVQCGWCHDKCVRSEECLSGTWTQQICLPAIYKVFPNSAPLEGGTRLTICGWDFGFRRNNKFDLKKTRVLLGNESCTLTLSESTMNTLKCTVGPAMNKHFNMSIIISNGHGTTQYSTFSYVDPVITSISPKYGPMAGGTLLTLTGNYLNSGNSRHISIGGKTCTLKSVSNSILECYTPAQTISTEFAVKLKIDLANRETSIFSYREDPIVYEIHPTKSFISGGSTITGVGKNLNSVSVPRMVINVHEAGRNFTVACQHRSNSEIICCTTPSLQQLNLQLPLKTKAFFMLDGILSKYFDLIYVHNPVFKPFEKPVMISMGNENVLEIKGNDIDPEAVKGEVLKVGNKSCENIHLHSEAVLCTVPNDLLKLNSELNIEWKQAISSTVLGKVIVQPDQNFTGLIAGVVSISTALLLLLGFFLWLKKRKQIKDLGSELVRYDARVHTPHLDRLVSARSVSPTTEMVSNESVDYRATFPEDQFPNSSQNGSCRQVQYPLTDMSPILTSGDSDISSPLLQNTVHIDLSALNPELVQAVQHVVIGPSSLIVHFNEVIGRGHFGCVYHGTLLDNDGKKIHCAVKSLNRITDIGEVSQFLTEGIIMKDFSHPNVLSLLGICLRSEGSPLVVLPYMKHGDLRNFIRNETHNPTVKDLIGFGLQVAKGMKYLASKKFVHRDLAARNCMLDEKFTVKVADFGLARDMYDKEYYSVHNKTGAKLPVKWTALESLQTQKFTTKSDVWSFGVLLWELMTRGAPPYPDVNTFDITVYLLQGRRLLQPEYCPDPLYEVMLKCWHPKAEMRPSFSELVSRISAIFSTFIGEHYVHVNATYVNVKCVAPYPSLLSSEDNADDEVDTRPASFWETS

panel of 468 kinases [4] = target: T4, panel of 468 kinases (Homo sapiens, UniProt Q16584); conditions: MLK3; 1 μM; read-out: % control
T4 construct: purchased KINOMEscan (ScanMAX) service

panel of 468 kinases [5] = target: T5, panel of 468 kinases (Homo sapiens, UniProt Q9UIK4); conditions: DAPK2; 1 μM; read-out: % control
T5 construct: purchased KINOMEscan (ScanMAX) service
T5 sequence (Q9UIK4 whole entry): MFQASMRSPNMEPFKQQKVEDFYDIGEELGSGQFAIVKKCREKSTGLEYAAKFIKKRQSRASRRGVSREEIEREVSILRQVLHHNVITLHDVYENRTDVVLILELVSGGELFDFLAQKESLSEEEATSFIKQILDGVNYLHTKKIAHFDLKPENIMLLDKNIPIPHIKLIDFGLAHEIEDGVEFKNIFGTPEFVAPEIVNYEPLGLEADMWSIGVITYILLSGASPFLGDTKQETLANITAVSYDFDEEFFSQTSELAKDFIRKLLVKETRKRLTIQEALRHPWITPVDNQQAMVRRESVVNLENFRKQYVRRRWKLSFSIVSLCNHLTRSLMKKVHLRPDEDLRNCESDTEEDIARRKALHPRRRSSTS

panel of 468 kinases [6] = target: T6, panel of 468 kinases (Homo sapiens, UniProt P08069); conditions: IGF1R; 1 μM; read-out: % control
T6 construct: purchased KINOMEscan (ScanMAX) service

panel of 468 kinases [7] = target: T7, panel of 468 kinases (Homo sapiens, UniProt O75676); conditions: 1 μM, read-out: % control
T7 construct: purchased KINOMEscan (ScanMAX) service
T7 sequence (O75676 whole entry): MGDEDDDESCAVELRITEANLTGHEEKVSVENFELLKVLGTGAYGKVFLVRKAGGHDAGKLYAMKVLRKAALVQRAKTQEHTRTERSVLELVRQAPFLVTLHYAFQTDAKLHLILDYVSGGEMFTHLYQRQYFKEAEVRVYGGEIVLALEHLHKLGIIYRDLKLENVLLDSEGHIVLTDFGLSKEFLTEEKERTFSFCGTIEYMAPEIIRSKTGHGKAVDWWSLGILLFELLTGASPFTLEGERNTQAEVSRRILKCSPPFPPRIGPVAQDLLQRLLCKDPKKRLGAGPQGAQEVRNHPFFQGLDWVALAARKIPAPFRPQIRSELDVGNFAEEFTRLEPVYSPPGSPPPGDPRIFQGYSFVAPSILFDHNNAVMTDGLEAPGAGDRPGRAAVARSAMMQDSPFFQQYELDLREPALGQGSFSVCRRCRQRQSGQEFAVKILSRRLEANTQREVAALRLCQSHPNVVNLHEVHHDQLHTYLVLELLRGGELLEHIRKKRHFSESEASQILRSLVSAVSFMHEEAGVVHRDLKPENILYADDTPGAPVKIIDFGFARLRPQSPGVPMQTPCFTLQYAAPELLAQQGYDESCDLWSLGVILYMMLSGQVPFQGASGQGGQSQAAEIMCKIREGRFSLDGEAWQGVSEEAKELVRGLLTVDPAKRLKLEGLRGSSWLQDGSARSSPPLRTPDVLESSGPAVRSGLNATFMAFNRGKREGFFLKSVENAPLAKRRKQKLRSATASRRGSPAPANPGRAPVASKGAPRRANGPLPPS

panel of 468 kinases [8] = target: T8, panel of 468 kinases (Homo sapiens, UniProt P29376); conditions: LTK; 1 μM; read-out: % control
T8 construct: purchased KINOMEscan (ScanMAX) service
T8 sequence (P29376 17-864): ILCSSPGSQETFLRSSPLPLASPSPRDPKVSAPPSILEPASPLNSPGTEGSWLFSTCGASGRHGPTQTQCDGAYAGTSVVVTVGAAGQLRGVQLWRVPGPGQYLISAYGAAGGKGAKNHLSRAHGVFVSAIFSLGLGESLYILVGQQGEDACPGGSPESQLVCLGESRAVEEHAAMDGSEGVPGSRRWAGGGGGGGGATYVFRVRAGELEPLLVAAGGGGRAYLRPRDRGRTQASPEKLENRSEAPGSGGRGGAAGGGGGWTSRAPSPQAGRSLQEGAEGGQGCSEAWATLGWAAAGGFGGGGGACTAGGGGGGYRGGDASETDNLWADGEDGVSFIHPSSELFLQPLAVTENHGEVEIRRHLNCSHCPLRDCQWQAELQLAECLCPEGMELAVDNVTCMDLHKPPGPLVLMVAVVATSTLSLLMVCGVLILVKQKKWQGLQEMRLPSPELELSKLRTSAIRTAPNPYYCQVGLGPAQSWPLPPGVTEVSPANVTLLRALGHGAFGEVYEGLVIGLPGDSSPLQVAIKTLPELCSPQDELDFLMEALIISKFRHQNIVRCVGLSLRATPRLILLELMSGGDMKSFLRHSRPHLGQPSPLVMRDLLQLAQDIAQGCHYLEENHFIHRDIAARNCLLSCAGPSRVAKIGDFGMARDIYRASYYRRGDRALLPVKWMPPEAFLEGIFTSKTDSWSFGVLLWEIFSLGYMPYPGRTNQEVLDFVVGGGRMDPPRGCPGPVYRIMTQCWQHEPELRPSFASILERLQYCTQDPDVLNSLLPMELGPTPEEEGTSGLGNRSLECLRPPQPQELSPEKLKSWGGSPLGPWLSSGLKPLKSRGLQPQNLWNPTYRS

panel of 468 kinases [9] = target: T9, panel of 468 kinases (Homo sapiens, UniProt P00533, DEL746-750); conditions: EGFR(E746-A750del); 1 μM; read-out: % control
T9 construct: purchased KINOMEscan (ScanMAX) service

panel of 468 kinases [10] = target: T10, panel of 468 kinases (Homo sapiens, UniProt Q9NWZ3); conditions: IRAK4; 1 μM; read-out: % control
T10 construct: purchased KINOMEscan (ScanMAX) service
T10 sequence (Q9NWZ3 1-460): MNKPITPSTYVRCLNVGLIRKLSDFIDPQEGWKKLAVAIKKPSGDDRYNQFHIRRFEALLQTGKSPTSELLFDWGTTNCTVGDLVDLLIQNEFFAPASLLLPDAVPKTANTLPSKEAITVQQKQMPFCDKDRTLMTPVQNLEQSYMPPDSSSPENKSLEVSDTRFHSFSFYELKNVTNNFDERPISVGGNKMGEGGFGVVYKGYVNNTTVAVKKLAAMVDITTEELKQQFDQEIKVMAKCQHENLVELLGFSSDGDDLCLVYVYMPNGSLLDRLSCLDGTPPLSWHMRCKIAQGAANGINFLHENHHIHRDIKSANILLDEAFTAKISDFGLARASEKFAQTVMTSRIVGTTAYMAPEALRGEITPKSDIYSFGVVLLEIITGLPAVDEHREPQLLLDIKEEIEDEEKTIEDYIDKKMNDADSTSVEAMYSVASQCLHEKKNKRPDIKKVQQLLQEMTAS

panel of 468 kinases [11] = target: T11, panel of 468 kinases (Homo sapiens, UniProt Q9Y2H9); conditions: MAST1; 1 μM; read-out: % control
T11 construct: purchased KINOMEscan (ScanMAX) service

panel of 468 kinases [12] = target: T12, panel of 468 kinases (Homo sapiens, UniProt Q9H2K8); conditions: TAOK3; 1 μM; read-out: % control
T12 construct: purchased KINOMEscan (ScanMAX) service
T12 sequence (Q9H2K8 1-898): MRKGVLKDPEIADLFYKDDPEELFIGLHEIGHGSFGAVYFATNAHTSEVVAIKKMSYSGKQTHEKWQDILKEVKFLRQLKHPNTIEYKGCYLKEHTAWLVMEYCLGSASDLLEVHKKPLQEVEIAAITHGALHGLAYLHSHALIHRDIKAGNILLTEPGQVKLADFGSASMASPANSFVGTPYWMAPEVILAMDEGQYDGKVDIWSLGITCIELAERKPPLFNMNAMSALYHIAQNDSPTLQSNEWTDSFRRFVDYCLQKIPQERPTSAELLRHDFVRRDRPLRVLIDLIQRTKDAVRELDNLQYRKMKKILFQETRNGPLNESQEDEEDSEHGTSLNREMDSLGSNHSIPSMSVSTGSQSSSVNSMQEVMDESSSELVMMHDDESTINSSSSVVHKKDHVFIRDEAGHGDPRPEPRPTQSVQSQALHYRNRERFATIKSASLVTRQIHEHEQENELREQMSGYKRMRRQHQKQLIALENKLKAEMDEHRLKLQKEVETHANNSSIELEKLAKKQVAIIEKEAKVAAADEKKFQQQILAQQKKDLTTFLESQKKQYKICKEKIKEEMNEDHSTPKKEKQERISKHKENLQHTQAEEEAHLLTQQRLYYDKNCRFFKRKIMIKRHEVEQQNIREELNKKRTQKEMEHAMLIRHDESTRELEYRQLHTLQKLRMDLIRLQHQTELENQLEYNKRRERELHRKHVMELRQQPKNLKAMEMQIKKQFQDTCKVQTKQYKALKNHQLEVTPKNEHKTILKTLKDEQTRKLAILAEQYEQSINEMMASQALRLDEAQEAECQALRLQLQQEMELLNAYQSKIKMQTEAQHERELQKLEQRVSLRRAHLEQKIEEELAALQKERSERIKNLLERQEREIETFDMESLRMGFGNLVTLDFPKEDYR

T1 sequence (P22455 22-802): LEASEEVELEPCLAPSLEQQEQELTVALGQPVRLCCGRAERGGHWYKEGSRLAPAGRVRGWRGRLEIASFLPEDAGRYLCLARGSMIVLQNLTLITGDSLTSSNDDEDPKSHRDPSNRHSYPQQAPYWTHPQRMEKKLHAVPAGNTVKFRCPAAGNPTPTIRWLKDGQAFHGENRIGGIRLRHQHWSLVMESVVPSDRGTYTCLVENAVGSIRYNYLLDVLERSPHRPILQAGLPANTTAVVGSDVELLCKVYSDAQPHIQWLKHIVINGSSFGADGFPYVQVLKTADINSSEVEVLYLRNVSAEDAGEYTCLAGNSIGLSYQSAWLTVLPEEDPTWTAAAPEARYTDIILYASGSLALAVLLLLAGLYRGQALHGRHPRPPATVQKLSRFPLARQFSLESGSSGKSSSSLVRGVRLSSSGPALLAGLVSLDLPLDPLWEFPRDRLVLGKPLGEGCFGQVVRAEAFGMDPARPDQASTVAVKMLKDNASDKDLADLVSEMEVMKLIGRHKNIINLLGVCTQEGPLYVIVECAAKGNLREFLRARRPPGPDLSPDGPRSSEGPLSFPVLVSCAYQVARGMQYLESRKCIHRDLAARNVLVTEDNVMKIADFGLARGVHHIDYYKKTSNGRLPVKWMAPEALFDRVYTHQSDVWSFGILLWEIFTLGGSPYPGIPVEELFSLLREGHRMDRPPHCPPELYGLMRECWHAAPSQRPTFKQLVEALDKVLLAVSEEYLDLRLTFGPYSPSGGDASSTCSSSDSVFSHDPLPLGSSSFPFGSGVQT

Compound	remaining binding at 1 µM (panel of 468 kinases [1])	remaining binding at 1 µM (panel of 468 kinases [2])	remaining binding at 1 µM (panel of 468 kinases [3])	remaining binding at 1 µM (panel of 468 kinases [4])	remaining binding at 1 µM (panel of 468 kinases [5])	remaining binding at 1 µM (panel of 468 kinases [6])	remaining binding at 1 µM (panel of 468 kinases [7]; RPS6KA4(Kin.Dom.1-N-terminal))	remaining binding at 1 µM (panel of 468 kinases [7]; RPS6KA4(Kin.Dom.2-C-terminal))	remaining binding at 1 µM (panel of 468 kinases [8])	remaining binding at 1 µM (panel of 468 kinases [9])	remaining binding at 1 µM (panel of 468 kinases [10])	remaining binding at 1 µM (panel of 468 kinases [11])	remaining binding at 1 µM (panel of 468 kinases [12])
CNc1nc(Nc2ccc(S(=O)(=O)N3CCC(N4CCOCC4)CC3)cc2OC)nc2[nH]cc(Cl)c12 [Compound 12, 5-chloro-N2-(2-methoxy-4-((4-morpholinopiperidin-1-yl)sulfonyl)phenyl)-N4-methyl-7H-pyrrolo[2,3-d]pyrimidine-2,4-diamine]	90%	95%	100%	93%	29%	100%	100%	13%	22%	75%	95%	100%	85%
CNc1nc(Nc2ccc(C(=O)N3CCC(N4CCOCC4)CC3)c3c2OCO3)nc2[nH]cc(Cl)c12 [Compound 75, (7-((5-chloro-4-(methylamino)-7H-pyrrolo[2,3-d]pyrimidin-2-yl)amino)benzo[d][1,3]dioxol-4-yl)(4-morpholinopiperidin-1-yl)methanone]	100%	44%	100%	51%	28%	89%	89%	3.9%	19%	94%	82%	93%	83%
CNc1nc(Nc2ccc(P3(=O)CCN(C4CCOCC4)CC3)cc2OC)nc2[nH]cc(Cl)c12 [Compound 77, 4-(4-((5-chloro-4-(methylamino)-7H-pyrrolo[2,3-d]pyrimidin-2-yl)amino)-3-methoxyphenyl)-1-(tetrahydro-2H-pyran-4-yl)-1,4-azaphosphinane 4-oxide]	98%	54%	100%	80%	10%	100%	100%	0.7%	21%	87%	98%	97%	84%
